Legend:
[1] = system: NKCC2, ENaC-beta, and NCC proteins in mouse M1 CCD cell line; assay: Expression of NKCC2, ENaC-beta and NCC in M1 CCD cells after treatment with IL-6 and/or Spironolactone (immunoblotting); type: cell-based; settings: FIGS. 5A-5C
Protocol: (§1) The mouse M1 CCD cell line (American Type Culture Collection (ATCC), Cat #CRL-2038) was maintained the cell culture medium containing equal amount of DMEM (Sigma-Aldrich, Cat #D6046) and Han F12 (Sigma-Aldrich, Cat #11765-047), supplemented with 5% Fetal Bovine Serum (FBS), 1% Penicillin-Streptomycin (Thermo Fisher Scientific, Cat #15140-122), 1% Insulin-Transferrin-Selenium (Thermo Fisher Scientific, Cat #51500-056) and 100 nM Dexamethasone (Sigma-Aldrich, Cat #D4902-100MG).
(§2) M1 CCD cells were seeded at 1 million/well in 6-well plate in the cell culture medium, and incubated overnight in a 37° C., 5% CO2 incubator on Day 0. The cell culture medium was changed to DMEM/F12 serum-free medium on Day 1 and the cells were incubated overnight in a 37° C., 5% CO2 incubator. On Day 2, the serum-free medium was removed and the cell culture medium was added to each well. Spironolactone (Selleckchem, Cat #54054) was added at the final concentration of 1 μM or 100 μM 10 min before the addition of IL-6 (Sigma-Aldrich, Cat #SRP3096-20UG) at the final concentration of 10 ng/mL, 100 ng/mL, or 500 ng/mL. A control well without Spironolactone or IL-6 was included. […] The sample were analyzed by immunoblotting using anti-NKCC2 antibody (Millipore, Cat #AB3562P), anti-ENaC-beta antibody (Millipore, Cat #AB3532P), or anti-NCC antibody (Millipore, Cat #AB3553) and the protein expression was quantified. […]

[2] = system: NKCC2, ENaC-beta, and NCC proteins in mouse M1 CCD cell line; assay: Expression of NKCC2, ENaC-beta and NCC in M1 CCD cells after treatment with IL-6 and/or Ruxolitinib (immunoblotting); type: cell-based; settings: IL-6 10, 100 or 500 ng/mL, 24 hours, FIGS. 4A-4C
Protocol: as §1
as §2, with “Ruxolitinib” for “Spironolactone”, “#51378)” for “#54054)”

Compound | effect of Spironolactone on the IL-6 effect on ion transporter proteins (NKCC2, ENaC-beta, NCC) ([1]; Spironolactone 1 μM or 100 μM added 10 min before IL-6, 24 hours) | expression of NKCC2, ENaC-beta, and NCC after treatment of IL-6 [2] | expression of NKCC2, ENaC-beta, and NCC after treatment of IL-6 ([1]; IL-6 10, 100 or 500 ng/mL, 24 hours, immunoblotting)
CC(=O)S[C@@H]1CC2=CC(=O)CC[C@]2(C)[C@H]2CC[C@@]3(C)[C@@H](CC[C@@]34CCC(=O)O4)[C@H]12 [Spironolactone] | blocked the effect of IL-6 on the ion transporter proteins |  | 
IL-6: pro-inflammatory cytokine added to cells (Sigma-Aldrich, Cat #SRP3096-20UG) |  | increased the expression of NKCC2, ENaC-beta, and NCC | increased the expression of NKCC2, ENaC-beta, and NCC
